Laboratory results taken from US8592174B2, “Peptidase substrates” (bioMérieux, S.A., priority 2009, dated 2013).

What was measured:
Type in all cases: cell-based
[1] = tested on: Salmonella spp 93 03 001; assay: pH variation detection on modified chromID Coli medium (Example 6); parameters: Coloration strength: key: +++: good growth/high coloration strength; ++: medium growth/medium coloration strength; +: weak growth/weak coloration strength; −: no growth/no coloration; settings: 50 mg/l, 24 h 37° C.
Experimental: (§1) The media were incubated for 24 hours at 37° C., then the spots formed were examined visually.

[2] = tested on: Providencia rettgeri 88 05 064; assay: as above; parameters: Coloration strength: key to the marks not given beside the values; settings: 50 mg/l, 24 h 37° C.
Experimental: as §1

[3] = tested on: Citrobacter braakii 05 06 109; assay: as above; parameters: Coloration strength: key to the marks not given beside the values; settings: 50 mg/l, 24 h 37° C.
Experimental: as §1

[4] = tested on: Proteus mirabilis 04 05 048; assay: as above; parameters: Coloration strength: key to the marks not given beside the values; settings: 50 mg/l, 24 h 37° C.
Experimental: as §1

[5] = tested on: Hafnia alvei 05 04 201; assay: as above; parameters: Coloration strength: key to the marks not given beside the values; settings: 50 mg/l, 24 h 37° C.
Experimental: as §1

[6] = tested on: E. coli 77 05 035; assay: as above; parameters: Coloration strength: key to the marks not given beside the values; settings: 50 mg/l, 24 h 37° C.
Experimental: as §1

[7] = tested on: Shigella flexneri 92 11 059; assay: as above; parameters: Coloration strength: key to the marks not given beside the values; settings: 50 mg/l, 24 h 37° C.
Experimental: as §1

[8] = tested on: Salmonella ser. Typhimurium 81 12 010; assay: as above; parameters: Coloration strength: key to the marks not given beside the values; settings: 50 mg/l, 24 h 37° C.
Experimental: as §1

[9] = tested on: Listeria monocytogenes 8812049; assay: Peptidase detection on Columbia medium (Example 4); settings: 75 mg/l, 48 h 37° C.; for Growth: control C: ++
Source text: (§2) After homogenization, the media were distributed into 120-mm-squared dishes. A medium serving as a growth control (Columbia) and denoted C was also poured.

[10] = tested on: Citrobacter freundii 0006197; assay: Peptidase detection on Columbia medium (Example 4); settings: 75 mg/l, 48 h 37° C.; for Growth: control C: ++
Source text: as §2

[11] = tested on: Escherichia coli 0002005; assay: Peptidase detection on Columbia medium (Example 4); settings: 75 mg/l, 48 h 37° C.; for Growth: control C: ++
Source text: as §2

[12] = tested on: Staphylococcus epidermidis 0203050; assay: Peptidase detection on Columbia medium (Example 4); settings: 75 mg/l, 48 h 37° C.; for Growth: control C: ++
Source text: as §2

[13] = tested on: Enterococcus faecalis 0008192; assay: Peptidase detection on Columbia medium (Example 4); settings: 75 mg/l, 48 h 37° C.; for Growth: control C: ++
Source text: as §2

[14] = tested on: Morganella morganii 9207053; assay: Peptidase detection on Columbia medium (Example 4); settings: 75 mg/l, 48 h 37° C.; for Growth: control C: ++
Source text: as §2

[15] = tested on: Enterococcus faecium 0610021; assay: Peptidase detection on Columbia medium (Example 4); settings: 75 mg/l, 48 h 37° C.; for Growth: control C: ++; as to all read-outs here: key: +++: good growth/high coloration strength; ++: medium growth/medium coloration strength; +: weak growth/weak coloration strength; −: no growth/no coloration
Source text: as §2

[16] = tested on: Acinetobacter baumannii 0604029; assay: Peptidase detection on Columbia medium (Example 4); settings: 75 mg/l, 48 h 37° C.; for Growth: control C: ++
Source text: as §2

[17] = tested on: Bacillus subtilis 0204038; assay: Peptidase detection on Columbia medium (Example 4); settings: 75 mg/l, 48 h 37° C.; for Growth: control C: ++; as to all read-outs here: key: +++: good growth/high coloration strength; ++: medium growth/medium coloration strength; +: weak growth/weak coloration strength; −: no growth/no coloration
Source text: as §2

[18] = tested on: Candida glabrata 0408083; assay: Peptidase detection on Columbia medium (Example 4); settings: 75 mg/l, 48 h 37° C.; for Growth: control C: +; as to all read-outs here: key: +++: good growth/high coloration strength; ++: medium growth/medium coloration strength; +: weak growth/weak coloration strength; −: no growth/no coloration
Source text: as §2

[19] = tested on: Salmonella ser typhimurium 0801029; assay: Peptidase detection on Columbia medium (Example 4); settings: 75 mg/l, 48 h 37° C.; for Growth: control C: ++
Source text: as §2

[20] = tested on: Serratia marcescens 7303004; assay: Peptidase detection on Columbia medium (Example 4); settings: 75 mg/l, 48 h 37° C.; for Growth: control C: ++
Source text: as §2

[21] = tested on: Streptococcus pyogenes 9806380; assay: Peptidase detection on Columbia medium (Example 4); settings: 75 mg/l, 48 h 37° C.; for Growth: control C: ++
Source text: as §2

[22] = tested on: Enterobacter cloacae 0604040; assay: Peptidase detection on Columbia medium (Example 4); settings: 75 mg/l, 48 h 37° C.; for Growth: control C: ++
Source text: as §2

[23] = tested on: Klebsiella pneumoniae 0008009; assay: Peptidase detection on Columbia medium (Example 4); settings: 75 mg/l, 48 h 37° C.; for Growth: control C: ++
Source text: as §2

[24] = tested on: Pseudomonas aeruginosa 0001001; assay: Peptidase detection on Columbia medium (Example 4); settings: 75 mg/l, 48 h 37° C.; for Growth: control C: ++
Source text: as §2

[25] = tested on: Providencia rettgeri 0706064; assay: Peptidase detection on Columbia medium (Example 4); settings: 75 mg/l, 48 h 37° C.; for Growth: control C: ++
Source text: as §2

[26] = tested on: Burkholderia cepacia 7507032; assay: Peptidase detection on Columbia medium (Example 4); settings: 75 mg/l, 48 h 37° C.; for Growth: control C: ++
Source text: as §2

[27] = tested on: Staphylococcus aureus 7811049; assay: Peptidase detection on Columbia medium (Example 4); settings: 75 mg/l, 48 h 37° C.; for Growth: control C: ++; as to all read-outs here: key: +++: good growth/high coloration strength; ++: medium growth/medium coloration strength; +: weak growth/weak coloration strength; −: no growth/no coloration
Source text: as §2

[28] = tested on: MRSA 0303033; assay: Peptidase detection on Columbia medium (Example 4); settings: 75 mg/l, 48 h 37° C.; for Growth: control C: ++
Source text: as §2

[29] = tested on: Yersinia enterocolitica 7605019; assay: Peptidase detection on Columbia medium (Example 4); settings: 75 mg/l, 48 h 37° C.; for Growth: control C: ++
Source text: as §2

[30] = tested on: Candida albicans 0801025; assay: Peptidase detection on Columbia medium (Example 4); settings: 75 mg/l, 48 h 37° C.; for Growth: control C: ++
Source text: as §2

## Nc1ccc(C=Cc2ccnc3ccccc23)cc1
[1]
  Color: Orange
  Coloration strength: ++
[1]; control C: ++
  Growth: ++
[2]
  Color: Orange
  Coloration strength: ++
[2]; control C: ++
  Growth: ++
[3]
  Color: Orange
  Coloration strength: ++
[3]; control C: ++
  Growth: ++
[4]
  Color: Orange
  Coloration strength: ++
[4]; control C: ++
  Growth: ++
[5]
  Color: Orange
  Coloration strength: ++
[5]; control C: ++
  Growth: ++
[6]
  Color: Orange
  Coloration strength: ++
[6]; control C: ++
  Growth: ++
[7]
  Color: Orange
  Coloration strength: ++
[7]; control C: ++
  Growth: ++
[8]
  Color: Orange
  Coloration strength: ++
[8]; control C: ++
  Growth: ++

## C[C@H](N)C(=O)Nc1ccc(C=Cc2cc[n+](C)c3ccccc23)cc1.Cl.[Cl-] [L-alanyl-4-(4′-amidostyryl)-N-methylquinolinium (dichloride)]
[9]
  Color: orange
  Coloration strength: ++
  Growth: ++
[10]
  Color: orange
  Coloration strength: +
  Growth: ++
[11]
  Color: orange
  Coloration strength: ++
  Growth: ++
[12]
  Color: orange
  Coloration strength: ++
  Growth: ++
[13]
  Color: orange
  Coloration strength: +
  Growth: ++
[14]
  Color: orange
  Coloration strength: ++
  Growth: ++
[15]
  Color: −
  Coloration strength: −
  Growth: ++
[16]
  Color: orange
  Coloration strength: ++
  Growth: ++
[17]
  Color: −
  Coloration strength: −
  Growth: ++
[18]
  Coloration strength: −
  Growth: +
[19]
  Color: orange
  Coloration strength: +
  Growth: ++
[20]
  Color: orange
  Coloration strength: ++
  Growth: ++
[21]
  Color: orange
  Coloration strength: +
  Growth: ++
[22]
  Color: orange
  Coloration strength: ++
  Growth: ++
[23]
  Color: orange
  Coloration strength: ++
  Growth: ++
[24]
  Color: orange
  Coloration strength: ++
  Growth: ++
[25]
  Color: orange
  Coloration strength: +
  Growth: ++
[26]
  Color: orange
  Coloration strength: +
  Growth: ++
[27]
  Coloration strength: +
  Growth: ++
[28]
  Color: orange
  Coloration strength: +
  Growth: ++
[29]
  Color: orange
  Coloration strength: ++
  Growth: ++
[30]
  Coloration strength: −
  Growth: ++

## C[C@H](N)C(=O)N[C@@H](C)C(=O)N[C@@H](C)C(=O)Nc1ccc(C=Cc2cc[n+](C)c3ccccc23)cc1.Cl.[Cl-] [Tri-Ala-ASQM^+, L-alanyl-L-alanyl-L-alanyl-4-(4′-amidostyryl)-N-methylquinolinium (dichloride)]
[9]
  Color: orange
  Coloration strength: ++
  Growth: ++
[10]
  Color: orange
  Coloration strength: +
  Growth: ++
[11]
  Color: orange
  Coloration strength: ++
  Growth: ++
[12]
  Color: orange
  Coloration strength: ++
  Growth: ++
[13]
  Color: orange
  Coloration strength: +
  Growth: ++
[14]
  Color: orange
  Coloration strength: ++
  Growth: ++
[15]
  Coloration strength: −
  Growth: ++
[16]
  Color: orange
  Coloration strength: ++
  Growth: ++
[17]
  Coloration strength: −
  Growth: ++
[18]
  Growth: −
[19]
  Color: orange
  Coloration strength: +
  Growth: ++
[20]
  Color: orange
  Coloration strength: ++
  Growth: ++
[21]
  Color: orange
  Coloration strength: +
  Growth: ++
[22]
  Color: orange
  Coloration strength: ++
  Growth: ++
[23]
  Color: orange
  Coloration strength: ++
  Growth: ++
[24]
  Color: orange
  Coloration strength: ++
  Growth: ++
[25]
  Color: orange
  Coloration strength: +
  Growth: ++
[26]
  Color: orange
  Coloration strength: +
  Growth: ++
[27]
  Coloration strength: +
  Growth: ++
[28]
  Color: orange
  Coloration strength: +
  Growth: ++
[29]
  Color: orange
  Coloration strength: ++
  Growth: ++
[30]
  Growth: +
